According to PubChem BioAssay (NCI):
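Where inhibition never reached the appropriate level, the endpoint shown equals the highest concentration tested. Otherwise, values were interpolated linearly from a five-concentration, 48-hour dose response in 96-well plates. TGI denotes the concentration required for complete inhibition of growth.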

Columns and labels:
Assay in all cases: growth of human tumour cells (NCI), 48 h
HL-60(TB) leukemia = system: HL-60(TB) leukemia
NCI-H522 lung = system: NCI-H522 lung
NCI-H460 lung = system: NCI-H460 lung
OVCAR-3 ovarian = system: OVCAR-3 ovarian
SNB-19 CNS = system: SNB-19 CNS
SN12C renal = system: SN12C renal
HS 578T breast = system: HS 578T breast
MALME-3M melanoma = system: MALME-3M melanoma
PC-3 prostate = system: PC-3 prostate
BT-549 breast = system: BT-549 breast

O=C1C(Br)=CC2([N+](=O)[O-])CCNc3c(O)c4c5c(c3C2=C1Br)=NCCC=5C=N4 (stereo not given)
TGI (HL-60(TB) leukemia): 0.454 µM | TGI (NCI-H522 lung): 0.214 µM | TGI (NCI-H460 lung): 12.1 µM | TGI (OVCAR-3 ovarian): 0.784 µM | TGI (SNB-19 CNS): 9.72 µM | TGI (SN12C renal): 5.52 µM

CC(=O)OC[C@H]1O[C@@H](O[C@H]2[C@H](OC(C)=O)C=CO[C@@H]2COC(C)=O)C(OC(C)=O)[C@H]2OC(C)(C)O[C@H]21 (stereo not given in full)
TGI (HS 578T breast): > 100 µM | TGI (MALME-3M melanoma): > 100 µM | TGI (PC-3 prostate): > 100 µM | TGI (BT-549 breast): > 100 µM | TGI (NCI-H522 lung): 35.7 µM | TGI (NCI-H460 lung): > 100 µM | TGI (OVCAR-3 ovarian): > 100 µM | TGI (SNB-19 CNS): > 100 µM | TGI (SN12C renal): > 100 µM

Oc1ccc(Cl)cc1C1=N/C(=N\CN2CCN(C/N=C3/N=C(c4cc(Cl)ccc4O)CC(c4ccccc4)N3)CC2)NC(c2ccccc2)C1 (stereo not given)
TGI (HS 578T breast): > 100 µM | TGI (MALME-3M melanoma): > 100 µM | TGI (PC-3 prostate): > 100 µM | TGI (BT-549 breast): > 100 µM | TGI (HL-60(TB) leukemia): > 100 µM | TGI (NCI-H460 lung): > 100 µM | TGI (OVCAR-3 ovarian): 55.4 µM | TGI (SNB-19 CNS): > 100 µM | TGI (SN12C renal): 64.3 µM

CC1=NOC2(C1)/C(=N/O)CCC/C2=N\O (stereo not given)
TGI (HS 578T breast): > 100 µM | TGI (MALME-3M melanoma): > 100 µM | TGI (PC-3 prostate): > 100 µM | TGI (BT-549 breast): > 100 µM | TGI (NCI-H522 lung): > 100 µM | TGI (NCI-H460 lung): > 100 µM | TGI (OVCAR-3 ovarian): > 100 µM | TGI (SNB-19 CNS): > 100 µM | TGI (SN12C renal): > 100 µM

COc1ccc2c(c1)O[C@@H]1C(O)Oc3cc(OC)c(OC)cc3[C@]1(O)C2=O (stereo not given in full)
TGI (HS 578T breast): > 100 µM | TGI (PC-3 prostate): > 100 µM | TGI (BT-549 breast): 91 µM | TGI (HL-60(TB) leukemia): > 100 µM | TGI (NCI-H522 lung): 36.5 µM | TGI (NCI-H460 lung): > 100 µM | TGI (OVCAR-3 ovarian): > 100 µM | TGI (SNB-19 CNS): > 100 µM | TGI (SN12C renal): > 100 µM

O=C(c1ccc(Cl)cc1)c1ccc(OCC(=O)N2CCN(c3ccccc3)CC2)cc1
TGI (MALME-3M melanoma): > 100 µM | TGI (HL-60(TB) leukemia): > 100 µM | TGI (NCI-H460 lung): > 100 µM | TGI (OVCAR-3 ovarian): > 100 µM | TGI (SNB-19 CNS): > 100 µM | TGI (SN12C renal): > 100 µM

S=C1c2ccccc2NC(=NC2CCCC2)C2CSCN12 (stereo not given)
TGI (HS 578T breast): > 100 µM | TGI (MALME-3M melanoma): > 100 µM | TGI (PC-3 prostate): > 100 µM | TGI (BT-549 breast): > 100 µM | TGI (NCI-H522 lung): > 100 µM | TGI (NCI-H460 lung): > 100 µM | TGI (OVCAR-3 ovarian): > 100 µM | TGI (SNB-19 CNS): > 100 µM | TGI (SN12C renal): > 100 µM

CCOC/N=C(/N)NC#N
TGI (MALME-3M melanoma): > 100 µM | TGI (HL-60(TB) leukemia): > 100 µM | TGI (NCI-H522 lung): > 100 µM | TGI (NCI-H460 lung): > 100 µM | TGI (OVCAR-3 ovarian): > 100 µM | TGI (SNB-19 CNS): > 100 µM | TGI (SN12C renal): > 100 µM

COc1cc(OC)c2c(O)cc(CC(C)O)cc2c1 (stereo not given)
TGI (MALME-3M melanoma): > 100 µM | TGI (HL-60(TB) leukemia): > 100 µM | TGI (NCI-H522 lung): > 100 µM | TGI (NCI-H460 lung): > 100 µM | TGI (OVCAR-3 ovarian): > 100 µM | TGI (SNB-19 CNS): > 100 µM | TGI (SN12C renal): > 100 µM

COc1cc(-c2nc3cc(F)ccc3s2)ccc1O
TGI (MALME-3M melanoma): > 100 µM | TGI (PC-3 prostate): > 100 µM | TGI (BT-549 breast): > 100 µM | TGI (HL-60(TB) leukemia): > 100 µM | TGI (NCI-H522 lung): 78.4 µM | TGI (NCI-H460 lung): > 100 µM | TGI (OVCAR-3 ovarian): 79.1 µM | TGI (SNB-19 CNS): > 100 µM | TGI (SN12C renal): > 100 µM

CC(=O)Oc1ccc(/C=C/C(=O)O[C@@H](C)[C@H](C)OC(=O)/C=C/c2ccc(OC(C)=O)c(OC(C)=O)c2)cc1OC(C)=O
TGI (HS 578T breast): > 100 µM | TGI (MALME-3M melanoma): 63.5 µM | TGI (PC-3 prostate): > 100 µM | TGI (BT-549 breast): 89.2 µM | TGI (NCI-H522 lung): 28.1 µM | TGI (NCI-H460 lung): > 100 µM | TGI (OVCAR-3 ovarian): 51.6 µM | TGI (SNB-19 CNS): > 100 µM | TGI (SN12C renal): > 100 µM

COC(=O)C12Oc3ccc(-c4ccc5c(c4O)C(=O)C4=CCC(C)C(O)C4(C(=O)OC)O5)c(O)c3C(=O)C1=CCC(C)C2O (stereo not given)
TGI (MALME-3M melanoma): 3.28 µM | TGI (HL-60(TB) leukemia): 5.1 µM | TGI (NCI-H522 lung): 2.45 µM | TGI (NCI-H460 lung): 6.33 µM | TGI (OVCAR-3 ovarian): 2.9 µM | TGI (SN12C renal): 5.46 µM
